The subject of data set [1] is Mus musculus. The experiment in a line: Analgesic activity in Swiss albino mouse assessed as latancy of withdrawing tail at 50 mg/kg, po measured after 2 hrs by tail flick test relative to control. In kind it is functional. (In hot-plate and tail-flick tests a longer latency is read as antinociception.)
Data set [2] has as its system Mus musculus. The experiment in a line: Analgesic activity in Swiss albino mouse assessed as latancy of withdrawing tail at 100 mg/kg, po measured after 2 hrs by tail flick test relative to control. In kind it is functional.
Data set [3] relates to Mus musculus. In words: Analgesic activity in Swiss albino mouse assessed as time of licking paws at 50 mg/kg, po measured after 2 hrs by tail flick test relative to control. In kind it is functional.
The subject of data set [4] is Mus musculus. In words: Analgesic activity in Swiss albino mouse assessed as time of licking paws at 100 mg/kg, po measured after 2 hrs by tail flick test relative to control. In kind it is functional.
For data set [5], the system named is Mus musculus. The experiment in a line: Antiinflammatory activity in Swiss albino mouse assessed as inhibition of carrageenan-induced paw edema at 50 mg/kg, po administered 1 hr prior to carrageenan challenge measured after 2 hrs relative to control. In kind it is functional. The arrangement: scale not given: the % may be the effect or the level left. A general note: The carrageenan paw model is a standard test of acute inflammation.

In data set [6] the test system is Mus musculus. In words: Antiinflammatory activity in Swiss albino mouse assessed as inhibition of carrageenan-induced paw edema at 100 mg/kg, po administered 1 hr prior to carrageenan challenge measured after 2 hrs relative to control. In kind it is functional. More on the design: scale not given: the % may be the effect or the level left.
Data set [7] has as its target T1, Prostaglandin G/H synthase 1 (Ovis aries, UniProt P05979).
T1 sequence (P05979 whole entry): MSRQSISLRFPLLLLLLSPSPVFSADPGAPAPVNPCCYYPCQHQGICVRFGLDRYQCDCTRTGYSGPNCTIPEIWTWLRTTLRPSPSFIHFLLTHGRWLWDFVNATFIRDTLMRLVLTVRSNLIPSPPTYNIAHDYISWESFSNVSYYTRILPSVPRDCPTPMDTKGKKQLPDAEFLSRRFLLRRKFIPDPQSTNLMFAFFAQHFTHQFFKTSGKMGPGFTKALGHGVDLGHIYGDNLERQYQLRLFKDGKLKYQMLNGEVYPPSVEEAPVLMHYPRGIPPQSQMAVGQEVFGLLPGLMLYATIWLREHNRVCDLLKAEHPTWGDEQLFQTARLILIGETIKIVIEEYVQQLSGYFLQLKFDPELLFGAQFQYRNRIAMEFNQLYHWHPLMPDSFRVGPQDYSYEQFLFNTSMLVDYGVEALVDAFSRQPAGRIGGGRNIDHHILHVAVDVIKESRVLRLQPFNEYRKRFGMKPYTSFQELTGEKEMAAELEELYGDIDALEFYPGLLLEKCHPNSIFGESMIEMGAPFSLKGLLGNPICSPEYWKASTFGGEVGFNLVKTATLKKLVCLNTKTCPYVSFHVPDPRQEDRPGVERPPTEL
In words: Inhibition of ovine recombinant COX-1 using […] as substrate incubated for 10 mins prior to arachidonic acid addition measured after 2 mins by EIA.

For data set [8], the target named is T2, Prostaglandin G/H synthase 2 (Homo sapiens, UniProt P35354).
T2 sequence (P35354 whole entry): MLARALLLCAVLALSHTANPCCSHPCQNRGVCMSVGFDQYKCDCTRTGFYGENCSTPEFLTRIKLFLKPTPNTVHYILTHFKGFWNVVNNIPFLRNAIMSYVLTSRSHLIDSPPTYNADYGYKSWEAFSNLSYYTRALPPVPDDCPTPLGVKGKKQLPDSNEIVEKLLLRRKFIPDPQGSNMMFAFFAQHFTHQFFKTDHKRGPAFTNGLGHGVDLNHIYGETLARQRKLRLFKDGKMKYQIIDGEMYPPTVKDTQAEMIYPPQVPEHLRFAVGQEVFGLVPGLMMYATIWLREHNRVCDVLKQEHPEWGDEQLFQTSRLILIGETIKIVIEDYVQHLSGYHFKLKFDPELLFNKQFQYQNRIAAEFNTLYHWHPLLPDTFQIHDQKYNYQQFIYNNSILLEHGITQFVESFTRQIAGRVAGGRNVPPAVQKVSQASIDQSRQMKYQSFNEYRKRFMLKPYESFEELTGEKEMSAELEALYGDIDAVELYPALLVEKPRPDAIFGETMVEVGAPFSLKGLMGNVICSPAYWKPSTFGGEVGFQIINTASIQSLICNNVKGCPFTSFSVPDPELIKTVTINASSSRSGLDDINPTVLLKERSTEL
In words: Inhibition of human recombinant COX-2 using […] as substrate incubated for 10 mins prior to arachidonic acid addition measured after 2 mins by EIA.

Data set [9] in a line: Selectivity ratio of IC50 for ovine recombinant COX-1 to IC50 for human recombinant COX-2.
The subject of data set [10] is Mus musculus. The experiment in a line: Gastrointestinal toxicity in Swiss albino mouse assessed as ulcer index at 50 mg/kg, po measured after 2 hrs. The arrangement: dose 50 mg/kg, route oral. The settings on record: in vivo. In kind it is organism-based.
For data set [11], the system named is Mus musculus. In words: Gastrointestinal toxicity in Swiss albino mouse assessed as ulcer index at 100 mg/kg, po measured after 2 hrs. In kind it is organism-based. The arrangement: dose 100 mg/kg, route oral. The settings on record: in vivo.
Data set [12] deals with Mus musculus. In words: Acute toxicity in Swiss albino mouse assessed as mortality at 50 to 100 mg/kg, po measured after 6 hrs to 14 days. In kind it is organism-based. The settings on record: in vivo. More on the design: dose 50-100 mg/kg, route oral.
The test system of data set [13] is Mus musculus. In words: Acute toxicity in Swiss albino mouse assessed as weight loss at 50 to 100 mg/kg, po measured up to 14 days. In kind it is organism-based. More on the design: dose 50-100 mg/kg, route oral. The settings on record: in vivo, 336 h.
Data set [14] has as its system Mus musculus. In words: Acute toxicity in Swiss albino mouse assessed as behavioral changes at 50 to 100 mg/kg, po measured up to 14 days. In kind it is organism-based. More on the design: dose 50-100 mg/kg, route oral. The settings on record: in vivo, 336 h.
A short description of data set [15]: Acute toxicity in Swiss albino mouse assessed as mortality at 50 mg/kg, po after 12 hrs. In kind it is organism-based. More on the design: dose 50 mg/kg, route oral. The settings on record: in vivo.

The record followed here is ChEMBL document CHEMBL3400056, “Novel thiazolo[3,2-b]-1,2,4-triazoles derived from naproxen with analgesic/anti-inflammatory properties: Synthesis, biological evaluation and molecular modeling studies” (Bioorg Med Chem, 2015).

The term pIC50 denotes the negative decadic logarithm of the IC50, by convention in mol/L. Broadly, the mortality is the percentage killed.

pIC50: −log10 of the molar value.

As for `COc1ccc2cc(C(C)c3nc4s/c(=C\c5ccc(C)s5)c(=O)n4n3)ccc2c1` (configuration not stated), the MPE with Mus musculus [1] is recorded as 32.8%; in the data set with Mus musculus [2], 43.5%; in the data set on Mus musculus [3], 34.9%; in the data set on Mus musculus [4], 36%. In addition, the Activity is on record as 36.7% with Mus musculus [5]; 31.1% with Mus musculus [6]; “Non-toxic” in the data set with Mus musculus [12]; “Non-toxic” in the data set on Mus musculus [13]; “Non-toxic” in the data set on Mus musculus [14]. Also, the pIC50 in [7] was less than 4.00; in data set [8], 4.69. Moreover, in [9], the Ratio IC50 is greater than 4.87. The UI in the data set on Mus musculus [10] is 1.8; in the data set with Mus musculus [11], 2.3.
Take `COc1ccc2cc(C(C)c3nc4s/c(=C\C(C)=C\c5ccccc5)c(=O)n4n3)ccc2c1` (configuration not stated): the MPE in the data set with Mus musculus [1] turned out to be 45.3%; in the data set with Mus musculus [2] it was 41.1%; in the data set on Mus musculus [3], 28.7%; in the data set with Mus musculus [4], 25.9%. Also, the Activity is reported as 35.4% with Mus musculus [5]; 30.7% with Mus musculus [6]; “Non-toxic” with Mus musculus [12]; “Non-toxic” in the data set with Mus musculus [13]; “Non-toxic” in the data set on Mus musculus [14]. Also, the pIC50 in data set [7] was 4.19; in data set [8], 4.61. In addition, in data set [9], the Ratio IC50 is 2.63. Further, the UI in the data set with Mus musculus [10] was found to be 2; in the data set with Mus musculus [11] it was 2.3.
As to `COc1ccc2cc(C(C)c3nc4s/c(=C\c5cccc6ccccc56)c(=O)n4n3)ccc2c1` (configuration not stated), the MPE in the data set on Mus musculus [1] was 51.9%; in the data set with Mus musculus [2], 53.8%; in the data set on Mus musculus [3], 39.7%; in the data set on Mus musculus [4], 36.8%. In addition, the Activity with Mus musculus [5] is 43%; in the data set with Mus musculus [6], 39.6%; with Mus musculus [12], “Non-toxic”; in the data set on Mus musculus [13], “Non-toxic”; in the data set on Mus musculus [14], “Non-toxic”. The pIC50 is 4.07 in data set [7] and 4.17 in data set [8]. For the same compound, the Ratio IC50 in [9] worked out at 1.25. The UI is reported as 2.6 in the data set with Mus musculus [10] and 2.2 in the data set on Mus musculus [11].
Turning to `COc1ccc2c(c1)c(CC(=O)O)c(C)n2C(=O)c1ccc(Cl)cc1` [INDOMETHACIN], the MPE is on record as 46.9% in the data set with Mus musculus [1], 46.2% in the data set with Mus musculus [2], 35.2% in the data set with Mus musculus [3] and 40.5% with Mus musculus [4]. The Activity is 46.8% in the data set on Mus musculus [5] and 50.9% in the data set with Mus musculus [6]. Moreover, the UI is 4 in the data set with Mus musculus [10] and 5.1 in the data set with Mus musculus [11]. In [15], the mortality at 12 h worked out at 71%.
Regarding `COc1ccc2cc(C(C)c3nc4s/c(=C\c5ccc(Br)s5)c(=O)n4n3)ccc2c1` (configuration not stated), the MPE was determined as 38% with Mus musculus [1], 41.1% in the data set on Mus musculus [2], 29% with Mus musculus [3] and 24.4% with Mus musculus [4]. The Activity is given as 51.4% with Mus musculus [5]; 51.2% in the data set with Mus musculus [6]; “Non-toxic” in the data set with Mus musculus [12]; “Non-toxic” in the data set with Mus musculus [13]; “Non-toxic” in the data set on Mus musculus [14]. In addition, the pIC50 in data set [7] was 4.40; in data set [8], 4.76. Besides, the Ratio IC50 in [9] came to 2.3. In addition, the UI was 1.8 with Mus musculus [10] and 2.6 in the data set on Mus musculus [11].
`COc1ccc2cc(C(C)c3nc4s/c(=C\c5ccc(C(C)C)cc5)c(=O)n4n3)ccc2c1` (configuration not stated): the MPE came to 36.9% with Mus musculus [1], 17.9% in the data set on Mus musculus [2], 27.6% in the data set with Mus musculus [3] and 22% in the data set with Mus musculus [4]. The Activity in the data set on Mus musculus [5] is reported as 29.3%; with Mus musculus [6], 43.3%; with Mus musculus [12], “Non-toxic”; with Mus musculus [13], “Non-toxic”; with Mus musculus [14], “Non-toxic”. The pIC50 in data set [7] is 4.10; in [8], less than 4.00. In addition, the Ratio IC50 in [9] is less than 0.796. In addition, the UI with Mus musculus [10] came to 2.6; in the data set with Mus musculus [11], 2.4.
As to `COc1ccc2cc(C(C)c3nc4s/c(=C\c5ccc(-c6ccccc6)cc5)c(=O)n4n3)ccc2c1` (configuration not stated), the MPE in the data set on Mus musculus [1] was 47.1%; in the data set on Mus musculus [2], 49.1%; in the data set on Mus musculus [3] it was 42.1%; in the data set with Mus musculus [4] it was 39.8%. Moreover, the Activity in the data set with Mus musculus [5] is 45.3%; in the data set with Mus musculus [6], 40.9%; in the data set on Mus musculus [12], “Non-toxic”; in the data set on Mus musculus [13] it was “Non-toxic”; in the data set on Mus musculus [14] it was “Non-toxic”. Moreover, the pIC50 in [7] and in [8] was less than 4.00 throughout. Further, the figures for the UI in the data set with Mus musculus [10] and in the data set on Mus musculus [11] were 1.3 and 2.6, respectively.
